Assay [1] has as its system lymphoma cells (Jurkat cells). Kind of assay: cell death assay with inhibitors. Format: cell-based. The settings on record: HAMLET 21-35 μM, three hours. The method, then: GAPDH was used as a loading control.
(§1) Cells were detached from cell culture flasks with versen (0.2 g EDTA in 200 ml H2O and 800 ml PBS), washed with PBS and resuspended in serum-free RPMI-1640. HAMLET dissolved in PBS was incubated with cells (0.5×10^6/ml for A549, A498 and HeLa cells; 1×10^6/ml for Jurkat) at 37° C. FCS was added after 1 hour. Cell death was quantified by trypan blue exclusion (Chroma Gesellschaft Schmid & Co) or by measuring ATP levels (ATPlite Kit, PerkinElmer, Infinite 200, Tecan). Light images were captured using the HOLOMONITOR™ M2 digital holographic microscope (Phase Holographic Imaging AB, Lund, Sweden).
(§2) For studies with inhibitors, cells were pretreated for 30 minutes. Inhibitors used were Gadolinium chloride (GdCl3, 100 μM), Barium chloride (BaCl2, 1 mM), Ruthenium red (30 μM), tetrandrine (10 μM) and amiloride (1 mM), all from Sigma Aldrich. For p38 inhibition, SB202190 (20 μM, Sigma Aldrich) or BIRB796 (10 μM, Axon Medchem) dissolved in DMSO was used. The wells were washed twice with PBS and new medium with inhibitor was added. For RNA interference, FlexiTube siRNA Premixes against MAPK11 (SI00606053), MAPK14 (SI00300769) and All Star Negative Control siRNA (SI03650318) from Qiagen was used. A549 forward was transfected using 25 nM final siRNA concentration in 24-well plate. After 48 hours, knockdown was examined by Western blot (anti-p38, 1:1000, Cell Signaling) and RT-PCR (MAPK14, QT00079345, QIAGEN).
To examine if functional ion channels are important for the tumoricidal activity of HAMLET, A549 lung carcinoma cells in suspension were pretreated with the channel inhibitors for 30 minutes and exposed to increasing concentrations of HAMLET for three hours.

In assay [2] the test system is potassium channels in A549, lung carcinoma cell lines. The assay can be described thus: FLUXOR potassium (K^+) channel assay, Thallium (Tl^+) indicator. The class given is cell-based, human. The settings on record: HAMLET 35 μM; for effect of channel blocker on K^+ flux in response to HAMLET: carcinoma cells, 30 minutes pretreatment; for potassium channel activity (fluorescence signal): oleate 175 μM (5× the HAMLET concentration), peptides mixed with oleate and immediately added. The method, then: (§3) The FLUXOR™ potassium (K^+) channel assay was performed on the TECAN infinite F200 (Tecan Group, Switzerland), according to the manufacturer's instructions (Invitrogen). Briefly, this involved FLUXOR™ loading buffer (Hank's Balanced Saline Solution, (HBSS) buffered with 20 mM HEPES and pH adjusted to 7.4 with NaOH. POWERLOAD™ concentrate and water-soluble Probenecid were used respectively to enhance the dye solubility and retention, respectively. Media were removed from the cell plates manually, and 80 μL of loading buffer containing the FLUXOR™ dye mix was applied to each well. Once inside the cell, the nonfluorescent AM ester form of the FLUXOR™ dye is cleaved by endogenous esterases into a thallium-sensitive indicator. The dye was loaded for 60 minutes at room temperature and then removed with the supernatant. After washing with dye-free PBS buffer, a final volume of 80 μL assay buffer containing water-soluble probenecid was added. Cells received one of the following channel inhibitors: 3.3 μL per well of 30 mM amiloride, 3.0 μL of 32 mM BaCl2, 1.8 μL of 5.4 mM gadolinium, 3 μL 3.2 mM tetrandrine and 2.3 μL of 2.6 mM ruthenium red, and were then incubated at room temperature (23-25° C.) for 30 minutes to allow equilibration of the test compounds. Prior to injection, stimulation buffer was prepared from the chloride-free buffer and thallium reagents provided in the kit as well as HAMLET, to achieve a final added concentrations of 2 mM free Tl+ and 35 μM HAMLET after 1:5 dilution upon injection of the stimulus buffer onto cells that had been loaded with FLUXOR™ dye.
To distinguish Ca^2+ mobilization from intracellular stores from the influx of extracellular Ca^2+, EGTA was then added to the cell medium. […] K^+ fluxes across tumor cell membranes were subsequently quantified under the same experimental conditions, using the fluorophore FLUXOR™, which fluoresces after thallium has entered cells through K^+ channels.
Potassium channel activity was therefore measured in A549, lung carcinoma cell lines using an indicator, which emits fluorescence signal upon entering the cells via opened potassium channels, Thallium (Tl^+) indicator (FIG. 18).

In assay [3] the test system is tumor cells. Kind of assay: ion fluxes (Ca^2+, K^+, Na^+) quantified by fluorometry. Conditions: for effect of inhibitor on HAMLET Ca^2+ fluxes: FIG. 1B. The class given is cell-based. Here is the method:
FIG. 1. […] (A, upper panels) Bright-field micrographs showing glass-adherent egg yolk vesicles before and after a 40-minute exposure to HAMLET, α-lactalbumin (HLA) or oleic acid (OA). Morphology was recorded by differential interference contrast microscopy. Scale bar […]. […] (A, lower panels) Effect of HAMLET on PMVs from lung carcinoma cells. PMVs on glass-bottom dishes were exposed to HAMLET, HLA or OA and stained with Nile red for confocal microscopy. […] As a control PMVs from healthy, differentiated cells on glass-bottom dishes were also exposed to HAMLET and stained with Nile red.
FIG. 7. Ion Fluxes. (A) Ion fluxes induced by HAMLET (35 μM) or it constituents (35 μM All-ala α-lactalbumin or 175 μM sodium oleate) were quantified by fluorometry, as described. […] (B) The global transcriptional response to HAMLET was studied by microarray and the top 3000 genes by variance visualized in a Heatmap. […] Darker bands=high expression, lighter bands=low.
as §3

In assay [4] the test system is lung carcinoma, kidney carcinoma and lymphoma cells. The assay can be described thus: HAMLET-induced change in cell morphology (light microscopy, real-time imaging). The settings on record: light microscopy. Format: cell-based. Here is the method: as §1
For live cell imaging, cells were pre-treated with SB202190 for 30 minutes, nuclei were stained with Hoechst 33342 (Invitrogen) and Alexa-Fluor 568-labeled HAMLET (10% labeled HAMLET, Molecular Probes) was added in serum-free medium. FCS was added after 1 hour. Fluorescence was detected with pinhole settings corresponding to 1 airy unit. The cells were kept at 37° C., 5% CO2 and examined unfixed by LSM510 DUO confocal microscopy (Carl Zeiss).
To examine if the HAMLET-induced change in carcinoma cell morphology was modified by the channel inhibitors, lung carcinoma, kidney carcinoma and lymphoma cells were exposed to HAMLET in the presence or absence of ion channel inhibitors and examined by light microscopy (FIG. 2C).
To determine if p38 signaling was involved in cell death, we inhibited p38α and p38β in lung and kidney carcinoma and Jurkat lymphoma cells with two small-molecule p38 inhibitors: SB202190, a highly specific pyridinyl-imidazole inhibitor; and BIRB796, a diaryl urea compound, which bears little structural similarity to SB202190 (Fabian et al., 2005, Nature Biotechnology 23: 329-336), ([…] and FIG. 12B). […] The effect of p38 inhibition on cell death was also observed by real-time confocal imaging of lung carcinoma cells exposed to fluorescently labeled HAMLET.

For assay [5], the system named is (HeLa cells). Kind of assay: cell death assay with ion channel inhibitors. The settings on record: HAMLET 21-35 μM, three hours. The class given is cell-based. Here is the method:
as §1
as §2, with “After 48 hours, knockdown was examined by Western blot (anti-p38, 1:1000, Cell Signaling) and RT-PCR (MAPK14, QT00079345, QIAGEN).” left out

For assay [6], the system named is Jurkat cells. The assay can be described thus: sodium influx, CoroNa Green Sodium indicator. The class given is cell-based. The settings on record: 10-minute measurement period. The method, then: Sodium influx in Jurkat cells was measured by using CoroNa Green Sodium indicator. The fluorescence was quantified every 20-second interval for a 10-minute total measurement period.

The mark [7] stands for this setting: 35 μM All-ala α-lactalbumin or 175 μM sodium oleate, FIG. 7A.

The values that follow come from patent US9487561B2, “Biologically active complex and its preparation” (HAMLET PHARMA AB, priority 2010, dated 2016).

Entries after “also recorded” stand apart in the source; their conditions may differ.

On to `NC(N)=NC(=O)c1nc(Cl)c(N)nc1N` [amiloride, 3,5-diamino-6-chloro-N-(diaminomethylene)pyrazine-2-carboxamide], for which the “rescue from HAMLET-induced cell death” value in assay [1] and in assay [5] was “rescue effect” in each case. Further, in assay [2], the “effect of channel blocker on K^+ flux in response to HAMLET” value is on record as “intermediate inhibition”. The “effect of inhibitor on HAMLET Ca^2+ fluxes” value in assay [3] was “inhibited”. For the same molecule, in assay [4], the “effect of ion channel inhibitor on HAMLET-induced change in cell morphology” value is recorded as “maintained their normal morphology”.

Turning to `CCCCCCCC/C=C\CCCCCCCC(=O)[O-].[Na+]` [oleate, sodium oleate], in assay [2], the “potassium channel activity (fluorescence signal)” value is “potassium channels were activated by oleate alone, but at lower efficiency than HAMLET”. Moreover, in assay [3] (setting [7]), the “K^+ fluxes” value is listed as “triggered K^+ fluxes” and the “Na^+ or Ca^2+ fluxes” value is on record as “low”. Moreover, in assay [6], the “sodium influx (fluorescence signal)” value is reported as “did not trigger a sodium flux”.

On to `[Ba+2].[Cl-].[Cl-]` [BaCl2, barium chloride], for which the “rescue from HAMLET-induced cell death” value in assay [1] and in assay [5] was “rescue effect” throughout. The “effect of channel blocker on K^+ flux in response to HAMLET” value in assay [2] is given as “intermediate inhibition”. Besides, the “effect of inhibitor on HAMLET Ca^2+ fluxes” value in assay [3] is “inhibited”. In addition, the “effect of ion channel inhibitor on HAMLET-induced change in cell morphology” value in assay [4] was “maintained their normal morphology”.

B1: HAMLET (protein, UniProt P00709 20-142, looked up)
Alpha-lactalbumin: KQFTKCELSQLLKDIDGYGGIALPELICTMFHTSGYDTQAIVENNESTEYGLFQISNKLWCKSSQVPQSRNICDISCDKFLDDDITDDIMCAKKILDIKGIDYWLAHKALCTEKLEQWLCEKL
modifications: oleic acid complex
For the molecule B1, the “potassium channel activity (fluorescence signal)” value in assay [2] is recorded as “rapidly opened the K^+ channels; also recorded: triggers a rapid potassium flux”. Besides, the “sodium influx (fluorescence signal)” value in assay [6] is “immediate increase of fluorescence signal”.
